Data: ChEMBL document CHEMBL4819151, “Synthesis, optimization, in vitro and in vivo study of bicyclic substituted amine as MenA inhibitor” (Bioorg Med Chem Lett, 2021)
≈ marks a conversion by molar mass, not a printed value. Calls of active or inactive are those of the source. The calls are words filed in the database; no cut-off is given here.

Key:
Staphylococcus aureus [1] = experiment: Antibacterial activity against methicillin-resistant Staphylococcus aureus USA300 assessed as bacterial growth inhibition measured by two-fold serial microdilution method; type: functional
[2] = target: T1, 1,4-dihydroxy-2-naphthoate octaprenyltransferase (Mycobacterium tuberculosis, UniProt P9WIP3); experiment: Competitive inhibition of Mycobacterium tuberculosis H37Rv membrane MenA using DHNA as a substrate in presence of [1-3H]FPP or [1-3H]GGPP; type: cell membranes
T1 sequence (P9WIP3 whole entry): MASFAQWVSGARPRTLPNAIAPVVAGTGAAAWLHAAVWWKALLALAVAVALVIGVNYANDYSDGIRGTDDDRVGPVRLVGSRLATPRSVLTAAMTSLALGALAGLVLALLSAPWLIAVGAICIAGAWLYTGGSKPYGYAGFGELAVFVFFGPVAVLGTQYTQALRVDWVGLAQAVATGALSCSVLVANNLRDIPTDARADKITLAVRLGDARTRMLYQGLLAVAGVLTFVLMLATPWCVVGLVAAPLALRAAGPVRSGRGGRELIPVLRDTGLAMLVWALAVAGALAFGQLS

[3] = system: Mycobacterium tuberculosis; experiment: Antitubercular activity against Mycobacterium tuberculosis H37Rv; type: functional
[4] = system: Mycobacterium tuberculosis; experiment: Antitubercular activity against Mycobacterium tuberculosis H37Ra assessed as bacterial growth inhibition in the presence of 7H10/OADC medium; type: functional
[5] = target: T1, 1,4-dihydroxy-2-naphthoate octaprenyltransferase; experiment: Inhibition of Mycobacterium tuberculosis MenA
Staphylococcus aureus [6] = experiment: Antibacterial activity against methicillin-resistant Staphylococcus aureus USA300 assessed as bacterial growth inhibition in CAMH medium measured by two-fold serial microdilution method; type: functional
Staphylococcus aureus [7] = experiment: Antibacterial activity against methicillin-resistant Staphylococcus aureus USA300 infected in Caenorhabditis elegans N2 worms assessed as worms survival at 5 ug/ml measured after 4 days; type: functional; conditions: dose 5 µg/ml; time 4 day
Staphylococcus aureus [8] = experiment: Antibacterial activity against methicillin-resistant Staphylococcus aureus USA300 infected in Caenorhabditis elegans N2 worms assessed as worms survival at 25 ug/ml measured after 4 days; type: functional; conditions: dose 25 µg/ml; time 4 day
[9] = Toxicity in Balb/cJ mouse assessed as effect on lung inflammation at 10 mg/kg, INH administered for 4 days and measured on day 5 by H and E staining microscopic analysis; type: organism-based; conditions: in vivo, inhaled_or_intranasal, 120 h, time 5 day
[10] = Toxicity in Balb/cJ mouse assessed as effect on lung damage at 10 mg/kg, INH administered for 4 days and measured on day 5 by H and E staining microscopic analysis; type: organism-based; conditions: in vivo, inhaled_or_intranasal, 120 h, time 5 day
[11] = Toxicity in Balb/cJ mouse assessed as drug tolerability at 200 ug INH administered for 4 days; conditions: in vivo, inhaled_or_intranasal, 96 h, at 200 µg, time 4 day
[12] = Toxicity in Balb/cJ mouse assessed as body weight loss at 200 ug INH administered for 4 days and observed on day 5; conditions: in vivo, inhaled_or_intranasal, 120 h, dose 200 µg, time 5 day
[13] = Drug uptake in Balb/cJ mouse lungs at 200 ug INH administered for 4 days and measured on day 5 by reverse-phase HPLC analysis; type: ADME, tissue-based, Lung; conditions: in vivo, 120 h, at 200 µg, time 5 day
Staphylococcus aureus [14] = experiment: Bactericidal activity against methicillin-resistant Staphylococcus aureus USA300 at 16 ug/ml measured for 48 hrs in presence of menaquinone, MK4 by time kill assay curve based analysis; type: functional; conditions: dose 16 µg/ml
Staphylococcus aureus [15] = experiment: Antibacterial activity against methicillin-resistant Staphylococcus aureus USA300 assessed as bacterial growth inhibition at 8 ug/ml incubated for 24 hrs in presence 100 ug/ml of menaquinone, MK4 measured by two-fold serial microdilution method; type: functional, organism-based; conditions: dose 8.0 µg/ml
Staphylococcus aureus [16] = experiment: Antibacterial activity against methicillin-resistant Staphylococcus aureus USA300 assessed as bacterial growth inhibition at 8 ug/ml measured by two-fold serial microdilution method; type: functional, organism-based; conditions: dose 8.0 µg/ml
Staphylococcus aureus [17] = experiment: Antibacterial activity against methicillin-resistant Staphylococcus aureus USA300 infected in Caenorhabditis elegans N2 worms assessed as worms killing at 5 ug/ml measured after 4 days; type: functional; conditions: dose 5 µg/ml; time 4 day
Staphylococcus aureus [18] = experiment: Bactericidal activity against methicillin-resistant Staphylococcus aureus USA300 assessed as eradication in population size at 8 to 16 ug/ml measured after 2 hrs by time kill assay curve based analysis; type: functional, organism-based; conditions: dose 8-16 µg/ml
Staphylococcus aureus [19] = experiment: Bactericidal activity against methicillin-resistant Staphylococcus aureus USA300 assessed as log10 reduction in microbial growth at 8 ug/ml in presence of menaquinone, MK4 measured after 8 hrs by time kill assay curve based analysis; type: functional; conditions: dose 8 µg/ml
Staphylococcus aureus [20] = experiment: Antibacterial activity against methicillin-resistant Staphylococcus aureus USA300 infected in Caenorhabditis elegans N2 worms assessed as worms killing at 25 ug/ml measured after 4 days; type: functional; conditions: dose 25 µg/ml; time 4 day

SMILES: CC(C)=CCC/C(C)=C/CNCCc1ccc(F)cc1
- MIC (Staphylococcus aureus [1]): 32 µg/mL (≈ 116 µM)

SMILES: COc1ccc2ccc(OCCCCCCCCOCC=C(C)C)cc2c1
- MIC (Staphylococcus aureus [1]): > 256 µg/mL

SMILES: Fc1ccc(CNCCCCCCCCNCc2ccc(F)cc2)cc1
- MIC (Staphylococcus aureus [1]): 64 µg/mL (≈ 178 µM)

SMILES: CC(=O)NC[C@H]1CN(c2ccc(N3CCOCC3)c(F)c2)C(=O)O1 [LINEZOLID]
- MIC (Staphylococcus aureus [1]): 1 µg/mL (≈ 2.96 µM)

SMILES: COc1ccc2ccc(OCCCOCC=C(C)C)cc2c1
- MIC (Staphylococcus aureus [1]): > 256 µg/mL

SMILES: C=CCN(C)C/C=C(\C)CC/C=C(\C)CCC=C(C)C
- IC50 [2]: 20 µM
- MIC [3]: 6.1 µg/mL (≈ 22.1 µM)

SMILES: Fc1ccc(CCNCCCCCCCCNCCc2ccc(F)cc2)cc1
- MIC [4]: 32 µg/mL
- MIC (Staphylococcus aureus [1]): 16 µg/mL (≈ 41.2 µM)

SMILES: CC(C)=CCC/C(C)=C/CC/C(C)=C/CN1CCCCC1
- MIC [4]: 8 µg/mL
- MIC (Staphylococcus aureus [1]): 32 µg/mL (≈ 111 µM)

SMILES: CC(C)=CCC/C(C)=C/CN1CCCCC1
- MIC (Staphylococcus aureus [1]): 64 µg/mL (≈ 289 µM)

SMILES: COc1ccc2ccc(OCCCCCCCCN3CCCCC3)cc2c1
- IC50 [5]: 13.5 µM
- Activity (Staphylococcus aureus [6]): 16 µg/mL

SMILES: Fc1ccc(CCNCCCOc2ccc3ccc(OCCCNCCc4ccc(F)cc4)cc3c2)cc1
- Activity (Staphylococcus aureus [7]): 71%
- Activity (Staphylococcus aureus [8]): 78%
- Activity (Staphylococcus aureus [6]): 3 µg/mL

SMILES: CC(C)=CCC/C(C)=C/CC/C(C)=C/CNC1CCCC1
- MIC (Staphylococcus aureus [1]): 16 µg/mL (≈ 55.3 µM)

SMILES: C=CCN(C)CCCCCCCCOc1ccc2ccc(OC)cc2c1
- Activity [9]: Non-Toxic
- Activity [10]: Non-Toxic
- Activity (Staphylococcus aureus [1]): Active
- Activity [11]: 100%
- IC50 [5]: 16.9 µM
- Activity [12]: Non-Toxic
- Drug uptake [13]: 32.4%
- Activity (Staphylococcus aureus [6]): 16 µg/mL

SMILES: CC(C)=CCC/C(C)=C/CC/C(C)=C/COC(=O)C(N)CC(=O)O (stereo not given)
- IC50 [2]: 5.33 µM
- MIC [3]: 12.5 µg/mL (≈ 37 µM)

SMILES: CC(C)=CCC/C(C)=C/CC/C(C)=C/CNC1CC1
- MIC (Staphylococcus aureus [1]): 16 µg/mL (≈ 61.2 µM)

SMILES: O=[N+]([O-])c1ccc(OCCCCCCCCOc2ccc([N+](=O)[O-])cc2)cc1
- MIC (Staphylococcus aureus [1]): 64 µg/mL (≈ 165 µM)

SMILES: CC(C)=CCC/C(C)=C/CNC1CCCC1
- MIC [4]: 64 µg/mL
- MIC (Staphylococcus aureus [1]): 128 µg/mL (≈ 578 µM)

SMILES: CC(C)=CCC/C(C)=C/CC/C(C)=C/CNCCc1ccc(F)cc1
- Activity (Staphylococcus aureus [14]): 100%
- MIC [4]: 4 µg/mL
- MIC (Staphylococcus aureus [1]): 8 µg/mL (≈ 23.3 µM)
- Activity (Staphylococcus aureus [15]): inactive
- Activity (Staphylococcus aureus [16]): Active
- Activity (Staphylococcus aureus [17]): 83%
- Activity (Staphylococcus aureus [18]): Active
- Activity (Staphylococcus aureus [19]): 3.5 log10CFU/ml
- Activity (Staphylococcus aureus [20]): 100%

SMILES: O=[N+]([O-])c1ccc(OCCCCCCCCNCCc2ccc(F)cc2)cc1
- MIC [4]: 16 µg/mL
- MIC (Staphylococcus aureus [1]): 8 µg/mL (≈ 20.6 µM)

SMILES: CC(C)=CCC/C(C)=C/CNC1CC1
- MIC [4]: > 128 µg/mL
- MIC (Staphylococcus aureus [1]): > 128 µg/mL
